Assay results as given in patent US20120283293A1, “Methods of neuroprotection involving Prostaglandin E2 EP4 (PGE2 EP4) receptor activation” (The Board of Trustees of the Leland Stanford Junior …, priority 2011, published 2012).

System: NF-κB subunits p65 and p50 in BV-2 cells
Assay: NF-κB p65/p50 nuclear translocation in LPS-stimulated BV-2 cells (Western, immunofluorescence)
Assay type: cell-based, murine
Description: Nuclear and cytoplasmic fractions of BV-2 cells were prepared at several time points after treatment (0-120 minutes) using the nuclear extract kit from Active Motif (Carlsbad, Calif.). Briefly, cells were washed, collected in ice-cold PBS in the presence of phosphatase inhibitors, and centrifuged at 300×g for 5 min at 4° C. Cell pellets were resuspended in hypotonic buffer, treated with detergent, and centrifuged at 14,000×g for 30 sec at 4° C. After collection of the cytoplasmic fraction, nuclei were solubilized for 30 min in lysis buffer containing protease inhibitors. Lysates were centrifuged at 14,000×g for 30 min at 4° C. and supernatants were collected for NF-κB studies. To prepare whole cell lysates for phospho-Akt and phospho-IKK studies, cells were washed in ice-cold PBS and lysed in 20 mM Tris-HCl, pH 7.5, 150 mM NaCl, 1 mM Na2EDTA, 1 mM EGTA, 1% Triton, 2.5 mM sodium pyrophosphate, 1 mM β-glycerophosphate, 1 mM orthovanadate, 1 μg/ml leupeptin and 1 mM PMSF. Lysates were sonicated for 5 seconds, centrifuged at 14,000×g for 10 min at 4° C. and supernatants were collected for phospho-Akt and phospho-IKK studies. All protein concentrations were determined using the Bradford protein assay.
Western blot analysis. Protein (20 μg per lane) was fractionated using 12% SDS-PAGE and electrophoretically transferred to PVDF membranes (Bio-Rad, Hercules, Calif.). For phospho-Akt/Akt and phospho-IKK/IKK studies, membranes were probed with anti phospho-Ser473 Akt antibody or anti-phospho-IKK antibody (1:1000, Cell signaling, Beverly, Mass.) and anti-Akt and anti-IKK antibodies (1:1000; Cell Signaling). For NF-κB nuclear translocation studies, membranes were probed with anti-NF-κB p105/p50 antibody (1:5000, Abcom, Cambridge, Mass.) or anti-NF-κB p65 antibody (1:300, Santa Cruz Biotechnology). Loading controls included anti-actin antibody (1:10,000, Santa Cruz Biotechnology, Inc. Santa Cruz, Calif.) for cytosolic fractions and anti-lamin B1 antibody (1:10,000, Abcom, Cambridge, Mass.) for nuclear fractions. Immunoreactivity was detected using either sheep anti-rabbit or sheep anti-mouse HRP-conjugated secondary antibody (Amersham Biosciences, Arlington Heights, Ill.), followed by enhanced chemiluminescence (Pierce). Autoradiographic signals were quantified using NIH Image. Experiments were repeated in triplicate.
BV-2 cells were seeded on poly-L-Lysine coated glass coverslips and were maintained in culture for at least 24 hours before treatment with LPS+/−AE1-329. After one hour of treatment, cells were fixed with 4% paraformaldehyde and processed for immunocytochemistry using established protocols. NF-κB cellular localization was detected using rabbit anti-NF-κB p65 antibody (1:200, Santa Cruz Biotechnology) and Cy3-conjugated donkey anti-rabbit secondary antibody (Jackson ImmunoResearch Laboratories, West Grove, Pa.). Nuclei were visualized using Hoechst 33258 dye (MP Biomedicals, Solon, Ohio). Images were acquired using a Nikon Eclipse E600 microscope (Nikon Instruments, Melville, N.Y.) and a Hamamatsu Orca-ER digital camera (Hamamatsu Photonics, Bridgewater, N.J.). For quantification of nuclear NF-κB p65 levels, images were analyzed using the measurements module of Volocity 4.3.2 image analysis software (Improvision Inc., Waltham, Mass.). […] For data quantification, each data point represented the average NF-κB p65 signal from the nuclei in one field of view (>100 cells). […]

Which “nuclear p65 immunofluorescent signal” value (BV-2 cells, 60 minutes after LPS 100 ng/ml, AE1-329 100 nM) does the source give for `COCc1ccccc1CC[C@H](O)/C=C/[C@H]1[C@H](O)CC(=O)[C@@H]1SCCCSCC(=O)O` [AE1-329] here?
Its value is “significantly attenuated”.

And the “LPS-induced nuclear translocation of NF-κB subunits p65 and p50 (Western)” value (BV-2 cells, LPS 100 ng/ml, AE1-329 100 nM, vs vehicle)?
Its value is “reduced levels of NF-κB nuclear translocation”.

And the “time of maximal attenuation of nuclear translocation, NF-κB p65” value (BV-2 cells, LPS + AE1-329)?
Its value is 60 min.

What about the “time of maximal attenuation of nuclear translocation, p50” value (BV-2 cells, LPS + AE1-329) of the same compound?
The value was 120 min.

And the “cytoplasmic levels of p65 and p50” value (LPS-treated BV-2 cells, AE1-329 vs vehicle)?
The value was “increased”.
